Experimental data taken from PubChem BioAssay (NCI).
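96-well plates; 48 h exposure; 5 concentrations. Endpoints by linear interpolation between flanking doses. Not reached: highest tested concentration assigned. At the GI50, growth is halved. TGI: total growth inhibition.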

Assays:
Assay in all cases: growth of human tumour cells (NCI), 48 h
T-47D breast = system: T-47D breast
NCI-H460 lung = system: NCI-H460 lung
SR leukemia = system: SR leukemia
OVCAR-3 ovarian = system: OVCAR-3 ovarian
SF-295 CNS = system: SF-295 CNS
MOLT-4 leukemia = system: MOLT-4 leukemia
SF-539 CNS = system: SF-539 CNS
U251 CNS = system: U251 CNS
OVCAR-4 ovarian = system: OVCAR-4 ovarian
OVCAR-8 ovarian = system: OVCAR-8 ovarian

| SMILES | TGI (T-47D breast) [µM] | TGI (NCI-H460 lung) [µM] | TGI (SR leukemia) [µM] | TGI (OVCAR-3 ovarian) [µM] | TGI (SF-295 CNS) [µM] | TGI (MOLT-4 leukemia) [µM] | TGI (SF-539 CNS) [µM] | TGI (U251 CNS) [µM] | TGI (OVCAR-4 ovarian) [µM] | TGI (OVCAR-8 ovarian) [µM] | GI50 (T-47D breast) [µM] | GI50 (NCI-H460 lung) [µM] | GI50 (SR leukemia) [µM] | GI50 (OVCAR-3 ovarian) [µM] | GI50 (SF-295 CNS) [µM] | GI50 (MOLT-4 leukemia) [µM] | GI50 (SF-539 CNS) [µM] | GI50 (U251 CNS) [µM] | GI50 (OVCAR-4 ovarian) [µM] | GI50 (OVCAR-8 ovarian) [µM] |
| --- | --- | --- | --- | --- | --- | --- | --- | --- | --- | --- | --- | --- | --- | --- | --- | --- | --- | --- | --- | --- |
| CC(C)(C)c1cc(C2COC(=O)COCC(=O)OCCOCCOCCO2)cc(C(C)(C)C)c1O (centres undefined) | > 100 | 98.5 | > 100 | > 100 | 58.5 | > 100 | > 79.7 | > 100 | > 100 | > 100 | – | – | – | – | – | – | – | – | – | – |
| CC(=O)NC1=CC(=O)c2cc(C)cc(O)c2C1=O | 35 | 36.1 | 37.3 | 8.37 | 39.4 | 24.2 | 14.8 | 36.4 | 20.4 | 18.7 | – | – | – | – | – | – | – | – | – | – |
| CN(C)CCOC1(CC2CCCCC2)CCC(C(C)(C)C)CC1 (centres undefined) | 13.6 | 9.65 | 4.57 | 18.4 | 12 | 7.67 | 10.6 | 13.2 | 19.8 | 19.3 | – | – | – | – | – | – | – | – | – | – |
| NC(=O)NCCCC(NC(=O)OCCCCCn1ccc(=O)[nH]c1=O)C(=O)O (centres undefined) | > 100 | > 100 | > 100 | > 100 | > 100 | > 100 | > 100 | > 100 | > 100 | > 100 | – | – | – | – | – | – | – | – | – | – |
| O=C(Nc1cccc(-n2ccc3c(NC(=O)c4ccccc4)nccc32)c1)c1cc(N2CCOCC2)cc(C(F)(F)F)c1 | > 100 | > 36.9 | – | 0.0605 | 2.16 | > 100 | 0.94 | > 100 | > 100 | > 100 | > 51.8 | 0.0374 | 0.0583 | 0.0259 | 0.039 | 0.907 | 0.0675 | 0.118 | 0.175 | 0.286 |
| Cc1cccc2c1C/C(=C\c1cccc(C)c1C(=O)O)C2=O | > 100 | > 100 | > 100 | > 100 | > 100 | > 100 | > 100 | > 100 | > 100 | > 100 | – | – | – | – | – | – | – | – | – | – |
| CC1CCC2(CC1)N=C1CCC(C)CC1C1(CCC(C)CC1)N2 (centres undefined) | > 100 | > 100 | > 100 | > 100 | > 100 | 95.3 | > 100 | > 100 | > 100 | > 100 | – | – | – | – | – | – | – | – | – | – |
